According to ChEMBL document CHEMBL1143875, “Synthesis and structure-activity relationships of thiadiazole-derivatives as potent and orally active peroxisome proliferator-activated receptors alpha/delta dual agonists” (Bioorg Med Chem, 2008):
Calls of active or inactive are those of the source. The rule behind the calls is not given here.

Test system: not listed separately
Assay: Activity at retinoic acid receptor

Q: Which Activity does the source give for `Cc1cc(SCc2nc(-c3ccc(OC(F)(F)F)cc3)ns2)ccc1OC(C)(C)C(=O)O` here?
A: inactive

Test system: not listed separately
Assay: Activity at liver X receptor

Q: With `Cc1cc(SCc2nc(-c3ccc(OC(F)(F)F)cc3)ns2)ccc1OC(C)(C)C(=O)O` as the molecule, how does the Activity read?
A: inactive

Biological target: T1, Bile acid receptor (Homo sapiens) (UniProt Q96RI1)
T1 sequence (whole entry): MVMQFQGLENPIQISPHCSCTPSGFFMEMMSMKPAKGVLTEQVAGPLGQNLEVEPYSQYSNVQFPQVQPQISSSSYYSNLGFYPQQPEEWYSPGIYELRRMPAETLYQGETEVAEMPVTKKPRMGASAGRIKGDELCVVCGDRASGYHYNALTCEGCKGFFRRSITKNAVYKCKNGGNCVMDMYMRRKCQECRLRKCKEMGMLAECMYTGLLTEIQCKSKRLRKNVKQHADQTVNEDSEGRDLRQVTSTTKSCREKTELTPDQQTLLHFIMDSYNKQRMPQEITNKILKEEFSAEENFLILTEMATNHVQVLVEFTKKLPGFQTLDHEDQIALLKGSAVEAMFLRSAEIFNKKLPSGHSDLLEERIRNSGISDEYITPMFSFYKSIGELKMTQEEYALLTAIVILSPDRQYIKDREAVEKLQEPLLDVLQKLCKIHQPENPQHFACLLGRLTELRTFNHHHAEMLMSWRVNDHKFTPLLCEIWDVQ
Assay: Activity at farnesoid X receptor

Q: Which Activity does the source give for `Cc1cc(SCc2nc(-c3ccc(OC(F)(F)F)cc3)ns2)ccc1OC(C)(C)C(=O)O` here?
A: inactive

Biological target: T2, Peroxisome proliferator-activated receptor alpha (Homo sapiens) (UniProt Q07869)
T2 sequence (whole entry): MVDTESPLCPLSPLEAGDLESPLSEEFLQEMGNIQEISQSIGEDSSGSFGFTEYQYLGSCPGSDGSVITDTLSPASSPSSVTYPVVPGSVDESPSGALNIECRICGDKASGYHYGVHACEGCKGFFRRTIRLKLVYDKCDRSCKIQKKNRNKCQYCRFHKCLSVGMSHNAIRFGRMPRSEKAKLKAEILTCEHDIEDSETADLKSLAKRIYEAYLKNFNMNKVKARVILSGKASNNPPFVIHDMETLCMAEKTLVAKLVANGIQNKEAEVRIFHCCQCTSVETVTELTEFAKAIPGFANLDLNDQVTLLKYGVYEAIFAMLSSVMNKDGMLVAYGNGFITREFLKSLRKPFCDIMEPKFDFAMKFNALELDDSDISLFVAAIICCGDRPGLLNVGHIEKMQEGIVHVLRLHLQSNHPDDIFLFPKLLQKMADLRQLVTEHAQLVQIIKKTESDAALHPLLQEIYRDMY
Assay: Agonist activity at human PPARalpha-Gal4 in HEK293 cells by luciferase reporter assay relative to (S)-2-{2-[1-ethyl-3-(4-trifluoro-methoxyphenyl)ureido]indan-5-ylsulfanyl}-2-methylpropionic acid
Type: functional, cell-based

Q: With `Cc1cc(SCc2cc(-c3ccc(C(F)(F)F)cc3)sn2)ccc1OCC(=O)O` as the molecule, how does the Efficacy read?
A: 43%

Q: With `Cc1ccc(-c2nsc(COc3ccc(OC(C)(C)C(=O)O)c(C)c3)n2)cc1Cl` as the molecule, how does the Efficacy read?
A: 75%

Q: For `Cc1cc(SCc2nsc(-c3ccc(C(F)(F)F)cc3)n2)ccc1OC(C)(C)C(=O)O`, which Efficacy is on record?
A: 38%

Q: Which Efficacy does the source give for `Cc1cc(SCc2nc(-c3ccc(Cl)cc3Cl)ns2)ccc1OC(C)(C)C(=O)O` here?
A: 33%

Q: For `Cc1ccc(-c2nsc(CSc3ccc(OC(C)(C)C(=O)O)c(C)c3)n2)cc1C`, which Efficacy is on record?
A: 45%

Q: For `Cc1cc(SCCc2nc(-c3ccc(C(F)(F)F)cc3)ns2)ccc1OC(C)(C)C(=O)O`, which Efficacy is on record?
A: 65%

Q: For `Cc1cc(OCc2nc(-c3ccc(OC(F)(F)F)c(Cl)c3)ns2)ccc1OC(C)(C)C(=O)O`, which Efficacy is on record?
A: 101%

Q: With `Cc1cc(SCc2nsc(-c3ccc(OC(F)(F)F)cc3)n2)ccc1OC(C)(C)C(=O)O` as the molecule, how does the Efficacy read?
A: 47%

Q: With `Cc1cc(SCc2cc(-c3ccc(C(F)(F)F)cc3)ns2)ccc1OCC(=O)O` as the molecule, how does the Efficacy read?
A: 43%

Q: Which Efficacy does the source give for `Cc1ccc(-c2nsc(COc3ccc(OC(C)(C)C(=O)O)c(C)c3)n2)cc1C` here?
A: 58%

Q: For `Cc1cc(SCc2nc(-c3ccc(OC(F)(F)F)c(Cl)c3)ns2)ccc1OC(C)(C)C(=O)O`, which Efficacy is on record?
A: 73%

Q: Which Efficacy does the source give for `Cc1cc(OCc2nc(-c3ccc(Cl)c(Cl)c3)ns2)ccc1OC(C)(C)C(=O)O` here?
A: 83%

Q: Which Efficacy does the source give for `Cc1cc(SCc2nc(-c3ccc(C(F)(F)F)c(F)c3)ns2)ccc1OC(C)(C)C(=O)O` here?
A: 53%

Q: Which Efficacy does the source give for `Cc1cc(SCc2nc(-c3ccc(OC(F)(F)F)cc3)ns2)ccc1OC(C)(C)C(=O)O` here?
A: 44%

Q: Which Efficacy does the source give for `Cc1cc(OCc2nc(-c3ccc(C(F)(F)F)cc3)ns2)ccc1OC(C)(C)C(=O)O` here?
A: 71%

Q: With `Cc1cc(SCc2cc(-c3ccc(C(F)(F)F)cc3)on2)ccc1OCC(=O)O` as the molecule, how does the Efficacy read?
A: 41%

Q: With `Cc1cc(SCCc2nc(-c3ccc(Cl)c(Cl)c3)ns2)ccc1OC(C)(C)C(=O)O` as the molecule, how does the Efficacy read?
A: 71%

Q: With `Cc1cc(SCc2nc(-c3ccc(C(F)(F)F)cc3)ns2)ccc1OCC(=O)O` as the molecule, how does the Efficacy read?
A: 42%

Q: With `Cc1cc(SCc2nc(-c3ccc(OC(F)(F)F)cc3)ns2)ccc1OC1(C(=O)O)CCCC1` as the molecule, how does the Efficacy read?
A: 31%

Q: With `Cc1cc(SCc2nc(-c3ccc(Cl)cc3)ns2)ccc1OC(C)(C)C(=O)O` as the molecule, how does the Efficacy read?
A: 38%

Q: With `Cc1cc(OCc2nc(-c3ccc(C(F)(F)F)c(F)c3)ns2)ccc1OC(C)(C)C(=O)O` as the molecule, how does the Efficacy read?
A: 65%

Q: With `Cc1ccc(-c2nsc(CSc3ccc(OC(C)(C)C(=O)O)c(C)c3)n2)cc1Cl` as the molecule, how does the Efficacy read?
A: 74%

Q: Which Efficacy does the source give for `Cc1cc(OCc2nc(-c3ccc(OC(F)(F)F)cc3)ns2)ccc1OC(C)(C)C(=O)O` here?
A: 80%

Q: Which Efficacy does the source give for `Cc1cc(SCc2nc(-c3ccc(C(F)(F)F)cc3)ns2)ccc1OC(C)(C)C(=O)O` here?
A: 51%

Biological target: T3, Peroxisome proliferator-activated receptor gamma (Homo sapiens, UniProt P37231)
T3 sequence (P37231 whole entry): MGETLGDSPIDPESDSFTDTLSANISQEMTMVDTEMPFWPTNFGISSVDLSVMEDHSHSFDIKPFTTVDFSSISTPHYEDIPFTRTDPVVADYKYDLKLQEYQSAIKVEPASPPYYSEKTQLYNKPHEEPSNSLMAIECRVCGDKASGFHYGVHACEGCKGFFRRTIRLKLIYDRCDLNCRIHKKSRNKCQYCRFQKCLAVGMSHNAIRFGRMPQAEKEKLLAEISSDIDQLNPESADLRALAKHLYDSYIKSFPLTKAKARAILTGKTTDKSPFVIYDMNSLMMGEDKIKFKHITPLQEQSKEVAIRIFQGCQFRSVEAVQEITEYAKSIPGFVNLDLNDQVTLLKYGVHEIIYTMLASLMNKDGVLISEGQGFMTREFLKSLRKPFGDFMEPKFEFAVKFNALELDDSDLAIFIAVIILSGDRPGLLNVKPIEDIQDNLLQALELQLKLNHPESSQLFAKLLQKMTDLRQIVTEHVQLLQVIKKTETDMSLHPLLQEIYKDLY
Assay: Agonist activity at human PPARgamma-Gal4 in HEK293 cells by luciferase reporter assay
Type: functional, cell-based

Q: Which EC50 does the source give for `Cc1ccc(-c2nsc(CSc3ccc(OC(C)(C)C(=O)O)c(C)c3)n2)cc1C` here?
A: > 3000 nM

Q: For `CC(C)(Oc1ccc(SCc2nc(-c3ccc(C(F)(F)F)cc3)ns2)cc1)C(=O)O`, which EC50 is on record?
A: > 3000 nM

Q: Which EC50 does the source give for `Cc1cc(SCCc2nc(-c3ccc(Cl)c(Cl)c3)ns2)ccc1OC(C)(C)C(=O)O` here?
A: 815 nM

Test system: not listed separately
Assay: Activity at retinoic acid X receptor

Q: With `Cc1cc(SCc2nc(-c3ccc(OC(F)(F)F)cc3)ns2)ccc1OC(C)(C)C(=O)O` as the molecule, how does the Activity read?
A: inactive

Biological target: T4, Peroxisome proliferator-activated receptor delta (Homo sapiens, UniProt Q03181)
T4 sequence (Q03181 whole entry): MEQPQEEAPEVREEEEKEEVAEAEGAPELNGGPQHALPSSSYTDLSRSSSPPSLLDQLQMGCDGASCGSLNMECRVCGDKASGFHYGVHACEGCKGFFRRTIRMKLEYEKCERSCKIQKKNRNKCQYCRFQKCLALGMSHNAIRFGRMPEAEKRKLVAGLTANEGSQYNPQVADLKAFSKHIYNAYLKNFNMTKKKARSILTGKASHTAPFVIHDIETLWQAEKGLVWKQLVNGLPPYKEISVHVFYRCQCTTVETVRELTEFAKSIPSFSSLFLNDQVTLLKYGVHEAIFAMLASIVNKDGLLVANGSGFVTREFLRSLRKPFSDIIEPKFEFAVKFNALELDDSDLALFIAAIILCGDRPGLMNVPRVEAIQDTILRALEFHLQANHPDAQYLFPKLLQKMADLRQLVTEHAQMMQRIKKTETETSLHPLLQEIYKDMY
Assay: Agonist activity at human PPARdelta-Gal4 in HEK293 cells by luciferase reporter assay
Type: functional, cell-based

Q: With `Cc1cc(SCc2nc(-c3ccc(OC(F)(F)F)c(Cl)c3)ns2)ccc1OC(C)(C)C(=O)O` as the molecule, how does the EC50 read?
A: 3 nM

Q: With `CC(C)(Oc1ccc(SCc2nc(-c3ccc(C(F)(F)F)cc3)ns2)cc1)C(=O)O` as the molecule, how does the EC50 read?
A: 20 nM

Q: Which EC50 does the source give for `Cc1cc(SCc2nc(-c3ccc(C(F)(F)F)c(F)c3)ns2)ccc1OC(C)(C)C(=O)O` here?
A: 5 nM

Q: Which EC50 does the source give for `Cc1cc(SCCc2nc(-c3ccc(Cl)c(Cl)c3)ns2)ccc1OC(C)(C)C(=O)O` here?
A: 9 nM

Q: With `Cc1ccc(-c2nsc(CSc3ccc(OC(C)(C)C(=O)O)c(C)c3)n2)cc1Cl` as the molecule, how does the EC50 read?
A: 25 nM

Biological target: T5, Glucocorticoid receptor (Homo sapiens) (UniProt P04150)
T5 sequence (whole entry): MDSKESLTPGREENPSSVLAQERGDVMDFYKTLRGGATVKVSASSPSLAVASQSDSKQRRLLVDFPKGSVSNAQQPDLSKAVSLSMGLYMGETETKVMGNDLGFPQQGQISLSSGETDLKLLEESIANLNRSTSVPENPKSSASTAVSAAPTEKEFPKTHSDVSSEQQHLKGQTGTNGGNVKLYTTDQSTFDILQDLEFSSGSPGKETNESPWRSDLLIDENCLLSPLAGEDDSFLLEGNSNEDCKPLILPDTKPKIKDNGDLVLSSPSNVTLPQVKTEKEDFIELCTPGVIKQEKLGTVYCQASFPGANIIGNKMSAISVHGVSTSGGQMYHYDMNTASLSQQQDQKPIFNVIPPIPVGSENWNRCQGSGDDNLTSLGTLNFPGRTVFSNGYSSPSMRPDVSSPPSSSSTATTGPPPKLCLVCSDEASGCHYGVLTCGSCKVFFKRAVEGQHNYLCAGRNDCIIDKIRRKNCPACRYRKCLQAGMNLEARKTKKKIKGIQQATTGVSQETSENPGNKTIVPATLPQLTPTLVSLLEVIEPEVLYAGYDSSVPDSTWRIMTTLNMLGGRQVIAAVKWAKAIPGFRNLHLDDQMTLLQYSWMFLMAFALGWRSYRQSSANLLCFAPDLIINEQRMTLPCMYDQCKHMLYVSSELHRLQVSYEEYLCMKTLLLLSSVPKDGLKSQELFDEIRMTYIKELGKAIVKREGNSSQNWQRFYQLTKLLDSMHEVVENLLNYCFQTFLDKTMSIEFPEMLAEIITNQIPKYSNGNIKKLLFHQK
Assay: Activity at glucocorticoid receptor

Q: For `Cc1cc(SCc2nc(-c3ccc(OC(F)(F)F)cc3)ns2)ccc1OC(C)(C)C(=O)O`, which Activity is on record?
A: inactive

Biological target: T6, Peroxisome proliferator-activated receptor alpha (Homo sapiens, UniProt Q07869)
T6 sequence (Q07869 whole entry): T2 sequence (whole entry)
Assay: Agonist activity at human PPARalpha-Gal4 in HEK293 cells by luciferase reporter assay
Type: functional, cell-based

Q: For `Cc1cc(SCc2cc(-c3ccc(C(F)(F)F)cc3)ns2)ccc1OCC(=O)O`, which EC50 is on record?
A: 1290 nM

Q: For `CC(C)(Oc1ccc(SCc2nc(-c3ccc(C(F)(F)F)cc3)ns2)cc1)C(=O)O`, which EC50 is on record?
A: 155 nM

Q: Which EC50 does the source give for `Cc1cc(OCc2nc(-c3ccc(C(F)(F)F)c(F)c3)ns2)ccc1OC(C)(C)C(=O)O` here?
A: 86 nM

Q: With `Cc1ccc(-c2nsc(CSc3ccc(OC(C)(C)C(=O)O)c(C)c3)n2)cc1Cl` as the molecule, how does the EC50 read?
A: 70 nM
